Structures can show the parent of a compound that is named as a salt. Where two headings read alike, the source gives them in different places.
Tests used:
[1] = system: G. lamblia WBC6 trophozoites; assay: G. lamblia trophozoite proliferation assay (resazurin); assay type: cell-based, Giardia lamblia; details: for EC50: G. lamblia WBC6 trophozoites, 72 h anaerobic culture, read-out: Giardia cells EC50; for Effect on Giardia trophozoite proliferation: 50 μM inhibitor, 72 h culture, Fig 3B
Description: G. lamblia WBC6 (ATCC catalogue number 50803) trophozoites were grown under microaerophilic conditions in 11 ml culture tubes (Nunc, cat. 156758) containing TYI-S- 33 medium supplemented with 10% bovine serum and bovine bile according to standard protocols. Parasites were harvested by chilling the tubes on ice for 30 minutes to detach adherent cells and collected by centrifugation (900 x g, 10 minutes, 4°C). Encystation was induced using the two-step method as described previously by cultivating the trophozoites in bile-free medium for 44 hours and thereafter in medium (pH 7.85) containing porcine bile.
Test compounds were dissolved in DMSO and serially diluted in Giardia culture medium. G. lamblia WBC6 trophozoites were grown until adherent cells reached a confluency close to 100%. Cells were then chilled on ice for 20 min and adherent parasites were detached from the culture tube. Cultures were diluted to 5x10^3 cells/ml in growth medium (room temperature) and 100 μl aliquots were immediately added to wells of 96-well plates preloaded with the same volume of test compound dilutions. DMSO (solvent) controls were always included. Plates were incubated for 72 h at 37°C in a humid chamber with an anaerobic atmosphere. Adherent cells were then washed twice with 200 μl PBS before adding 200 μl of PBS containing […] resazurin and 1% glucose. After incubation for 4 h at 37°C, plates were read on a fluorescence plate reader (Wallac 1420 VICTOR^2, PerkinElmer) with excitation and emission wavelengths of 544 nm and 590 nm, respectively. Data were analyzed with the GraphPad Prism software package using a sigmoidal dose-response model for regression. All assays were done in quadruplicate and at least three independent experiments were performed.

[2] = biological target: recombinant GlPDE(aa588-1371) (Giardia intestinalis, UniProt A0A644EZ75); assay: biochemical; assay type: biochemical; details: for Activity against recombinant GlPDE in profiling assay: inhibitor at 100 μM, Fig 3A
From the text: The DNA sequence comprising the catalytic domain (residues Gly-983 –Glu-1371) was amplified by PCR using genomic DNA of G. lamblia WBC6 and the primer pair GlPDE1cat-for (5'-[…]-3') and GlPDE1cat-rev (5'-[…]-3'). The PCR product was then cloned into the TA vector pCRII-TOPO (Invitrogen) yielding plasmid pCR-GlPDE1cat. To get a plasmid containing the sequence coding for the full length protein lacking the N-terminal transmembrane helices (Met-588 –Glu-1371) of GlPDE, a further PCR product was produced using the primer pair GlPDE1-Mfor (5'-[…]-3') and GlPDE1-LMrev (5'-[…]-3') and was cloned via NdeI (bold) and BsrGI into pCR-GlPDE1cat resulting in plasmid pCR-GlPDE1M. The inserts of both plasmid constructs were verified by sequencing and subcloned into two variants of the yeast expression vector pLT1 [42] using the restriction enzymes SalI (italic)/EcoRV or NdeI (bold)/EcoRV. The EcoRV cloning site originated from the multiple cloning site of the pCRII-TOPO vector. One pLT1 variant directs the expression of the Giardia protein alone, whereas the other adds an N-terminal hemagglutinin (HA) tag to allow detection of the recombinant protein. Transformation of the constructs into the PDE-deficient S. cerevisiae strain PP5 (MATa leu2-3 leu2- 112 ura3-52 his3-532 his4 cam pde1::URA3 pde2::HIS3) was carried out as described previously.
Yeast cell pellets were created exactly as described previously. Briefly, yeast was grown at 30°C in SC-leu medium to end log phase and thereafter again for 3.5 h in YPD to maximize protein expression. Washed cells were frozen in liquid nitrogen and stored at -70°C. Frozen cell pellets were thawed on ice and resuspended in an equal volume of ice-cold extraction buffer (50 mM HEPES, pH 7.5, 100 mM NaCl, 1x Complete protease inhibitor cocktail without EDTA (Roche Applied Science)). Cell lysates were produced by three passages through a high pressure homogenizer (French press at 20’000 psi, 4°C). Unbroken cells and cell debris were removed by centrifugation for 20 min at 16’000 RCF at 4°C. 25% glycerol was added to the cleared supernatant. Aliquots were snap-frozen in liquid nitrogen and stored at -70°C for subsequent PDE activity assays.
PDE activity was determined by a modification of the two-step procedure of Thompson and Appleman as described previously. In all reactions no more than 20% of the substrate was hydrolyzed. […] Inhibitors were dissolved and diluted in dimethyl sulfoxide (DMSO), with 1% final DMSO concentration in the reaction mixes. Control reactions with DMSO alone were always included. Data were analyzed using the GraphPad Prism software package (GraphPad, San Diego).

TbrPDEB1 and TbrPDEB2 = system: TbrPDEB1 and TbrPDEB2; set-up: method as in PMID 22291195, PMID 22963052; details: cited from earlier work

Row | SMILES | IC50 ([2]; read-out: Giardia PDE IC50) | EC50 ([1]; Giardia duodenalis) | IC50 [2] | also measured
1 | COc1cc2c(cc1OC)-c1c/c(=N\c3c(C)cc(C)cc3C)n(C)c(=O)n1CC2 [Trequinsin, trequinsin] | – | > 50 µM | > 100 µM | –
2 | OCCN(CCO)c1nc(N2CCCCC2)c2nc(N(CCO)CCO)nc(N3CCCCC3)c2n1 [Dipyridamole, dipyridamole] | – | > 50 µM | 26.3 µM | Activity against recombinant GlPDE in profiling assay [2]: showed promising activity against GlPDE
3 | COc1ccc(Cc2nccc3cc(OC)c(OC)cc23)cc1OC [Papaverine, papaverine] | – | > 50 µM | > 100 µM | –
4 | CCOC(=O)C1=C[C@]2(CC)CCCN3CCc4c(n1c1ccccc41)[C@@H]32 [Vinpocetine, vinpocetine] | – | 16.3 µM | > 100 µM | –
5 | Cc1[nH]c(=O)c(C#N)cc1-c1ccncc1 [Milrinone, milrinone] | – | > 50 µM | > 100 µM | –
6 | CCCCOc1cc(CC2CNC(=O)N2)ccc1OC (stereo not drawn) [Ro20-1724] | > 100 µM | – | – | EC50 [1]: > 50 µM
7 | COc1ccc(C(=O)Nc2c(Cl)cncc2Cl)cc1OC1CCCC1 [Piclamilast, piclamilast] | – | 12 µM | 11.3 µM | Effect on Giardia trophozoite proliferation [1]: also inhibited Giardia trophozoite proliferation; Activity against recombinant GlPDE in profiling assay [2]: showed promising activity against GlPDE
8 | Nc1nc2c(ncn2[C@@H]2O[C@@H]3COP(=O)(O)O[C@H]3[C@H]2O)c(=O)[nH]1 [cGMP] | – | – | – | Acceptance as substrate by GlPDE ([2]; recombinant GlPDE(aa588-1371)): does not accept cGMP as a substrate
9 | CCCc1nn(C)c2c(=O)[nH]c(-c3cc(S(=O)(=O)N4CCN(C)CC4)ccc3OCC)nc12 [Sildenafil, sildenafil citrate] | – | > 50 µM | > 100 µM | –
10 | COc1ccc(Cc2nn3c([C@@H](CCCc4ccccc4)[C@@H](C)O)nc(C)c3c(=O)[nH]2)cc1OC [BAY 60–7550] | – | – | – | EC50 [1]: ~50 µM
11 | CC(=O)CCCCn1c(=O)c2c(ncn2C)n(C)c1=O [Pentoxifylline, pentoxifylline] | – | > 50 µM | – | –
12 | CCCCCC[C@@H]([C@@H](C)O)n1cnc2c(N)ncnc21 (racemic) [EHNA, erythro-9-(2-hydroxy-3-nonyl)adenine] | > 100 µM | – | – | EC50 [1]: > 50 µM
13 | O=C(Nc1c(Cl)cncc1Cl)c1ccc(OC(F)F)c(OCC2CC2)c1 [Roflumilast, roflumilast] | – | 7.4 µM | 6 µM | Effect on Giardia trophozoite proliferation [1]: also inhibited Giardia trophozoite proliferation; Activity against recombinant GlPDE in profiling assay [2]: showed promising activity against GlPDE
14 | COc1cc(-c2ccc(=O)[nH]n2)ccc1OC(F)F [Zardaverine, zardaverine] | – | > 50 µM | > 100 µM | –

Now from value to compound, other results behind:

Row | IC50 ([2]; read-out: Giardia PDE IC50) | SMILES | EC50 ([1]; Giardia duodenalis) | IC50 [2] | also measured
15 | > 100 µM | CC(C)Cn1c(=O)n(C)c(=O)c2[nH]cnc21 [IBMX, isobutyl-methyl-xanthine] | > 50 µM | – | –
16 | > 100 µM | C[C@H](Cc1nc2c(cnn2-c2ccccc2Cl)c(=O)[nH]1)C(F)(F)F [BAY 73–6691] | – | – | EC50 [1]: > 50 µM
17 | > 100 µM | Cc1ccc([N+](=O)[O-])cc1S(=O)(=O)N(C)C [BRL 50481] | – | – | –
18 | > 100 µM | CCCOc1ccccc1-c1nc2nn[nH]c2c(=O)[nH]1 [Zaprinast, zaprinast] | > 50 µM | – | –
19 | > 100 µM | COCc1nc2c([nH]1)c(=O)n(C)c(=O)n2CC(C)C [8'-MM-IBMX, 8-methoxymethyl-IBMX] | – | – | EC50 [1]: > 50 µM
20 | > 100 µM | CN(C(=O)CCCOc1ccc2[nH]c(=O)ccc2c1)C1CCCCC1 [Cilostamide, cilostamide] | > 50 µM | – | –
21 | ~100 µM | CCOC(=O)c1cnc2c(cnn2CC)c1NN=C(C)C [Etazolate, etatolate] | > 50 µM | – | –
22 | 0.8 µM | COc1ccc(C2=NN(C3CCCCCC3)C(=O)[C@@H]3CC=CC[C@H]23)cc1OCCCCOc1ccc(-c2nn[nH]n2)cc1 [NPD-001] | – | – | Effect on Giardia trophozoite proliferation [1]: also inhibited Giardia trophozoite proliferation; EC50 [1]: 6.9 µM; Potency against trypanosomal PDEs (TbrPDEB1 and TbrPDEB2): potencies in the nanomolar range; Activity against recombinant GlPDE in profiling assay [2]: showed promising activity against GlPDE
23 | ~100 µM | COc1cc2ncnc(N3CC[C@@H](Oc4cnc5ccccc5n4)C3)c2cc1OC [NEU28] | – | – | EC50 [1]: 30.6 µM
24 | > 100 µM | CN1CC(=O)N2[C@H](c3ccc4c(c3)OCO4)c3[nH]c4ccccc4c3C[C@@H]2C1=O [Tadalafil, tadalafil] | > 50 µM | – | –
25 | > 100 µM | COc1ccc(C2CNC(=O)C2)cc1OC1CCCC1 (stereo not drawn) [Rolipram, rolipram] | > 50 µM | – | –
